From patent publication US20060106207A1, “Nucleotide sequences that encode deregulated phosphoglycerate dehydrogenases of coryneform bacteria and method for producing l-serine” (Forschungszentrum Julich GMBH, priority 2002, published 2006)

Key:
Assay type in all cases: biochemical, Corynebacterium glutamicum
[1] = tested on: C-terminal foreshortened 3-phosphoglycerate-dehydrogenase mutant (serAΔ197) in strain 13032pZ1serAΔ197; test: Inhibition of the overexpressed 3-phosphoglycerate-dehydrogenase by L-serine in strain 13032pZ1serAΔ197
Procedure: (§1) The cells were harvested in the exponential growth phase at OD600 of 5 to 8 and washed twice in 100 mM Tris-HCl, pH 7.5. The cell pellets were then frozen at −20° C. until disintegration. The frozen cell pellets were moisturized on ice and resuspended with 2 ml cold Tris-HCl pH 7.5/10% glycerine in a Brenson sonifier for 10 minutes. Then the cell fragments were separated by centrifugation at 13000 rpm and 4° C. in a Sigma -202 MK centrifuge. The thus obtained supernatant is desalted as a raw extract initially on a PD-10 column using the conditions set by the manufacturer (Amersham Pharmacia Biotech) and then immediately subjected to enzyme measurement. The enzyme test relied upon the photometric detection of the formation of NADH in the reaction of 3-phosphoglycerate and NAD to NADH.
(§2) In the following tests were made whether the C-terminus foreshortened mutant serAΔ197 was no longer blocked by L-serine. For that purpose initially the inhibition of the 3-phosphoglycerate-dehydrogenase of the wild type was investigated in cell-free extracts of C. glutamicum by L-serine based upon the above described enzyme tests. For that purpose to the test bath were added 1, 5 and 10 mM L-serine and were incubated for 5 minutes at 30° C. The reaction was then started by the addition of 15 mM […]. […]

[2] = tested on: overexpressed 3-phosphoglycerate-dehydrogenase in strain 13032pZ1serA; test: Inhibition of the overexpressed 3-phosphoglycerate-dehydrogenase by L-serine in strain 13032pZ1serA; details: 10 mM L-serine, 5 minutes of incubation at 30° C.
Procedure: as §1, §2

[3] = tested on: Wild Type 3-Phosphoglycerate-Dehydrogenase of C. glutamicum; test: Inhibition of wild type 3-phosphoglycerate-dehydrogenase by L-serine in cell-free extracts
Procedure: as §1
In the following tests were made whether the C-terminus foreshortened mutant serAΔ197 was no longer blocked by L-serine. For that purpose initially the inhibition of the 3-phosphoglycerate-dehydrogenase of the wild type was investigated in cell-free extracts of C. glutamicum by L-serine based upon the above described enzyme tests. For that purpose to the test bath were added 1, 5 and 10 mM L-serine and were incubated for 5 minutes at 30° C. The reaction was then started by the addition of 15 mM […]. The incubation was necessary in order to be able to detect an inhibition (Table 4). This time dependency of the L-serine inhibition which required several minutes of incubation before a constant level of inhibition was reached has also been described for other 3-phosphoglycerate-dehydrogenase, for example for the purified enzyme of B. subtilis (Saski R. and Pitzer L., 1975, Eur. J. Biochem., 51:415-427).

[4] = tested on: 3-phosphoglycerate-dehydrogenase; test: 3-phosphoglycerate-dehydrogenase enzyme test of strains overexpressing serA or shortened serA alleles
Procedure: The plasmids pziserA, pZiserAΔ79, pZiserAΔ188), pZiserAΔ197, pZiserAΔ205 and pZiserAΔ211 were introduced by electroporation individually into C. glutamicum. As a control, the media plasmid pZ1 was also electroporated into C. glutamicum ATCC 13032. The thus obtained strains 13032pZ1, 13032pZ1serA, 13032pZiserAΔ79, 13032pZiserAΔ188, 13032pZiserAΔ197, 13032pZiserAΔ205 and 13032pZiserAΔ211 were analyzed for overexpression of the 3-phosphoglycerate-dehydrogenase by means of is the 3-phosphoglycerate-dehydrogenase enzyme test. For this purpose the […] strains were activated in complex medium (CgIII=2.5 g NaCl, 10 g bacto-peptone, 10 g bacto-yeast extract, pH 7.4 with 2% glucose) and the minimal medium CGXII and each was separately seeded from the preculture. The medium was identical with the medium CGXII described by Keilhauer et al (Journal of Bacteriology (1993) 175: 5593-5603) but containing additionally 25 μg/mL of kanamycin.
The cells were harvested in the exponential growth phase at OD600 of 5 to 8 and washed twice in 100 mM Tris-HCl, pH 7.5. The cell pellets were then frozen at −20° C. until disintegration. […]
With these test results a specific activity of about 150 mU/mg protein can be determined for the wild-type 3-phosphoglycerate-dehydrogenase activity. […]

Row | Molecule | L-serine inhibition of the foreshortened mutant (in words) [1] | Relative 3-Phosphoglycerate-Dehydrogenase Activity ([1]; 10 mM L-serine, 5 minutes of incubation at 30° C.) [%] | Relative 3-Phosphoglycerate-Dehydrogenase Activity [2] [%] | Relative 3-Phosphoglycerate-Dehydrogenase Activity ([3]; 1 mM L-serine, 5 minute incubation at 30° C.) [%] | Relative 3-Phosphoglycerate-Dehydrogenase Activity ([3]; 1 mM L-serine, without incubation) [%] | Relative 3-Phosphoglycerate-Dehydrogenase Activity ([3]; 5 mM L-serine, 5 minute incubation at 30° C.) [%] | Relative 3-Phosphoglycerate-Dehydrogenase Activity ([3]; 5 mM L-serine, without incubation) [%] | Relative 3-Phosphoglycerate-Dehydrogenase Activity ([3]; 10 mM L-serine, 5 minute incubation at 30° C.) [%] | Relative 3-Phosphoglycerate-Dehydrogenase Activity ([3]; 10 mM L-serine, without incubation) [%] | share of the wild type activity ([4]; compared with overexpressed wild type) | overexpression / increase in specific 3-phosphoglycerate-dehydrogenase activity ([4]; with respect to the wild type protein) [fold]
1 | N[C@@H](CO)C(=O)O [L-Serine, L-serine] | no longer was significantly limited | 95 | 34 | 96 | 106 | 82 | 112 | 56 | 104 |  | 
2 | serAΔ197: serA allele coding for PGD with deletion of 197 C-terminal amino acids, SEQ ID No. 1 / 7 (protein, listed as Corynebacterium glutamicum) MSQNGRPVVLIADKLAQSTVDALGDAVEVRWVDGPNRPELLDAVKEADALLVRSATTVDAEVIAAAPNLKIVGRAGVGLDNVDIPAATEAGVMVANAPTSNIHSACEHAISLLLSTARQIPAADATLREGEWKRSSFNGVEIFGKTVGIVGFGHIGQLFAQRLAAFETTIVAYDPYANPARAAQLNVELVELDELMSRSDFVTIHLPKTKETAGMFDAQLLAKSKKGQIIINAARGGLVDEQALADAIESGHIRGAGFDVYSTEPCTDSPLFKLPQVVVTPHLGASTEEAQDRAGTDVADSVLKALAGEFVADAVNVSGGRVGEEVAVWMDLA |  |  |  |  |  |  |  |  |  | more than 60% | 10
